From ChEMBL document CHEMBL1212814, “Polyamines in drug discovery: from the universal template approach to the multitarget-directed ligand design strategy” (J Med Chem, 2010)

Experiment: Inhibition of amyloid beta (1-40) aggregation by thioflavin T based fluorometric assay

An IC50 of 60.3 µM was found for `CN(C)[C@@H]1C(O)=C(C(N)=O)C(=O)[C@@]2(O)C(O)=C3C(=O)c4c(O)cccc4[C@@](C)(O)[C@H]3C[C@@H]12` [TETRACYCLINE] in this work.
An IC50 of 5.93 µM was found for `CCN(CCCCCCNC1=CC(=O)C(NCCCCCCN(CC)Cc2ccccc2OC)=CC1=O)Cc1ccccc1OC` [MEMOQUIN] in this work.
